This is an account of results in patent US20260272944A1, “PYRIDO[3,4-D]PYRIMIDINONE AND PYRIMDLLNE ARYL HYDROCARBON RECEPTOR ANTAGONISTS AND USES THEREOF” (ALLIANTHERA (SUZHOU) BIOPHARMACEUTICAL CO., LTD., priority 2023, published 2026).

What is called inhibition is the relative decrease from the control value, in per cent.

For the test, the target named is T1, Human Aryl Hydrocarbon Receptor (AhR) (Homo sapiens, UniProt P35869).
T1 construct: purchased INDIGO Bioscience IB06001-32; host or cells: AhR Reporter Cell (the kit's proprietary reporter cells)
T1 sequence (P35869 11-848): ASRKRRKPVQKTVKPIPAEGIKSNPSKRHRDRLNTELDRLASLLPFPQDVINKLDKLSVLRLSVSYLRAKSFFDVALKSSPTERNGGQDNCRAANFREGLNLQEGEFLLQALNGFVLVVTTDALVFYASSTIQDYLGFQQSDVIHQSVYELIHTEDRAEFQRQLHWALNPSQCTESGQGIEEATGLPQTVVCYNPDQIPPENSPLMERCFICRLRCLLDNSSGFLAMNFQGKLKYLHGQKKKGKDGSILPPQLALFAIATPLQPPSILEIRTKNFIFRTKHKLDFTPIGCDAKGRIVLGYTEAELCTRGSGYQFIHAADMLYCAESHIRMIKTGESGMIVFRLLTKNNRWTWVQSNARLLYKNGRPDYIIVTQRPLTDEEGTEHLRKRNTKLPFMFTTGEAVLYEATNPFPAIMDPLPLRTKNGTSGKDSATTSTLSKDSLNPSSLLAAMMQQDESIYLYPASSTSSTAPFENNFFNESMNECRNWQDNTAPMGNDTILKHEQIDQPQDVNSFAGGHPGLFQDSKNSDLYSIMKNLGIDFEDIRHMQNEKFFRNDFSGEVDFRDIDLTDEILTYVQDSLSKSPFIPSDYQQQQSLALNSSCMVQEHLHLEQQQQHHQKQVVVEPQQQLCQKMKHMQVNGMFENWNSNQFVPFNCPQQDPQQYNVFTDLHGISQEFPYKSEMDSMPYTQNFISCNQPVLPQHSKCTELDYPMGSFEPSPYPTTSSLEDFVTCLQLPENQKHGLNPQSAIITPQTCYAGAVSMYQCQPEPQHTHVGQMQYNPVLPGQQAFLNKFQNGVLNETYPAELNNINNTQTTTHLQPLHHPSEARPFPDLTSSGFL
In words: AhR reporter assay (Human Aryl Hydrocarbon Receptor (AhR) Reporter Assay System, INDIGO Bioscience). To be noted: AHR inhibition at 10 nM test compound; AhR Reporter Cells activated with 200 μM kynurenic acid, 24 hours; firefly luciferase; normalized by positive and negative controls. The test is classed as cell-based. On the procedure: The AhR reporter assay was performed following the protocol of the Human Aryl Hydrocarbon Receptor (AhR) Reporter Assay System (INDIGO Bioscience, #IB06001-32). AhR Reporter Cell was thawed and pre-incubated in Cell Recovery Medium (CRM) for 6 hours. The media was then removed and the cells were incubated with Compound Screening Medium (CSM) supplemented with 200 μM kynurenic acid for 24 hours in the absence (negative control) or presence of 10 nM test compounds. For positive inhibition control, cells activated with 200 μM kynurenic acid were incubated in the presence of literature AHR antagonists; alternatively un-activated cells were used as positive inhibition control. Following 24 hours incubation, the media was removed and Luciferase Detection Reagent (LDR) added. The firefly luciferase activity was quantified using a plate reader. Results were normalized by positive and negative controls.
The results of AHR inhibition at 10 nM for compounds as disclosed herein is reported in the below table.
On to `C[C@@H](CO)n1cnc2c(-c3cnn(C)c3)nc(N3Cc4ccc(F)cc4C3)cc2c1=O` [Compound 56], for which the inhibition at 0.01 µM stood at 99%.
Regarding `C[C@@H](CO)n1cnc2c(-c3cnn(C)c3)nc(-c3ccc(N4CCOCC4)cc3)cc2c1=O` [Compound 3], the inhibition at 0.01 µM amounted to 66%.
For `Cc1nn(C)c2cc(-c3cc4c(=O)n([C@@H](C)CO)cnc4c(-c4cnn(C)c4)n3)ccc12` [Compound 10], the inhibition at 0.01 µM was determined as 28%.
Regarding `C[C@@H](CO)n1cnc2c(-c3cnn(C)c3)nc(-c3ccc(-c4ccccc4F)nc3)cc2c1=O` [Compound 1], the inhibition at 0.01 µM worked out at 56%.
In the case of `C[C@@H](CO)n1cnc2c(-c3cnn(C)c3)nc(N3CCN(c4ccc(F)cc4F)CC3)cc2c1=O` [Compound 122] it was 46%; in that of `C[C@@H](CO)NC(=O)c1cc(-c2ccc(N3CCOCC3)cc2)nc(-c2cnn(C)c2)n1` [Compound 62], 29%; in that of `C[C@@H](CO)n1cnc2c(-c3cnn(C)c3)nc(-c3ccc(N4CCN(S(C)(=O)=O)CC4)cc3)cc2c1=O` [Compound 31], 24%.
Under `C[C@@H](CO)n1cnc2c(-c3cnn(C)c3)nc(-c3ccc(C(=O)N4CCN(S(C)(=O)=O)CC4)cc3)cc2c1=O` [Compound 120] stands -10%; under `Cc1cc(N2CCOCC2)ccc1-c1cc2c(=O)n([C@@H](C)CO)cnc2c(-c2cnn(C)c2)n1` [Compound 54], 1%; under `C[C@@H](CO)NC(=O)c1cc(-c2ccc(N3CCOCC3)nc2)nc(-c2cnn(C)c2)n1` [Compound 90], 1%.
In the case of `C[C@@H](CO)NC(=O)c1cc(N2Cc3ccccc3C2)nc(-c2cnn(C)c2)n1` [Compound 63] it was 58%.
`C[C@@H](CO)NC(=O)c1cc(-c2ccc(-c3ccc(F)cc3)nc2)nc(-c2cnn(C)c2)n1` [Compound 61]: the inhibition at 0.01 µM was determined as 62%.
In the case of `C[C@@H](CO)NC(=O)c1cc(N2CCN(c3ccc(F)cc3)[C@@H](C)C2)nc(-c2cnn(C)c2)n1` [Compound 72] it was 13%.
For `C[C@@H](CO)n1cnc2c(-c3cnn(C)c3)nc(N3Cc4cccnc4C3)cc2c1=O` [Compound 124], the inhibition at 0.01 µM is 77%.
In the case of `C[C@@H](CO)n1cnc2c(-c3cnn(C)c3)nc(-c3ccc(C(=O)N4CCOCC4)cc3)cc2c1=O` [Compound 21] it was -0.3%; in that of `CC1COCCN1c1ccc(-c2cc3c(=O)n([C@@H](C)CO)cnc3c(-c3cnn(C)c3)n2)cn1` (stereo partly shown) [Compound 27], 45%; in that of `C[C@@H](CO)n1cnc2c(-c3cnn(C)c3)nc(-c3ccc(C4CCOCC4)nc3)cc2c1=O` [Compound 11], 3%.
As for `C[C@@H](CO)NC(=O)c1cc(N2Cc3ccc(F)cc3C2)nc(-c2cnn(C)c2)n1` [Compound 93], the inhibition at 0.01 µM came out at 99%.
In the case of `C[C@@H](CO)NC(=O)c1cc(N2CCN(c3ccc(F)cc3)C[C@@H]2C)nc(-c2cnn(C)c2)n1` [Compound 77] it was 4%; in that of `C[C@@H](CO)NC(=O)c1cc(-c2ccc(C3CCOCC3)cc2)nc(-c2cnn(C)c2)n1` [Compound 71], 37%; in that of `C[C@@H](CO)n1cnc2c(-c3cnn(C)c3)nc(-c3ccc(-c4cncc(F)c4)nc3)cc2c1=O` [Compound 41], 39%.
In the case of `C[C@@H]1CN(c2cc(C(=O)N[C@@H](C)CO)nc(-c3cnn(C)c3)n2)CCN1c1ccc(F)cc1` [Compound 73] it was 23%.
Regarding `C[C@@H](CO)n1cnc2c(-c3cnn(C)c3)nc(-c3ccc(C(=O)N4CCCNCC4)cc3)cc2c1=O` [Compound 28], the inhibition at 0.01 µM is -5%.
For `C[C@@H](CO)n1cnc2c(-c3cnn(C)c3)nc(-c3ccc(C(=O)N4CCC(O)C4)cc3)cc2c1=O` (stereo partly shown) [Compound 29], the inhibition at 0.01 µM came out at 8%.
Under `C[C@@H](CO)NC(=O)c1cc(N2CC3CCC(C2)N3c2ccc(F)cc2)nc(-c2cnn(C)c2)n1` [Compound 74] stands 13%.
